Data: patent US11912668B2, “GCN2 and perk kinase inhibitors and methods of use thereof” (Deciphera Pharmaceuticals, LLC, priority 2020, dated 2024)

Tests used:
GCN2 kinase = GCN2 kinase (Homo sapiens (Human), UniProt Q9P2K8); assay: Biochemical assay for GCN2 (TR-FRET kinase activity assay); details: 1 mM ATP, 3-hour incubation
Method: Activity of GCN2 kinase was determined using a TR-FRET kinase activity assay (e.g. Riddle et al. Analytical Biochemistry (2006) 356(1) 108-116). Assays were conducted in 384-well plates (13 μL assay volume) using 2 nM GCN2 (Carna Biosciences), 130 nM GFP-EIf2α (Invitrogen), 0.2 mg/mL E. coli tRNA (sigma) and 1 mM ATP in kinase buffer (Invitrogen). Inhibition of GCN2 was measured by adding serial diluted test compound (final assay concentration of 0.5% DMSO) followed by a 3-hour incubation. Tb-peIF2α (pSer52) antibody (Invitrogen) (2 nM final assay concentration) in kinase buffer containing ETDA (final assay concentration of 20 mM) was added. After a 60 min incubation at room temperature, TR-FRET was monitored using an excitation wavelength of 340 nm and emission wavelengths of 490 nm and 520 nm. The emission ratio (520/490) at each compound concentration of was converted to percent inhibition using controls (i.e. reaction with no test compound and reaction with a known inhibitor) and IC50 values were calculated by fitting a four-parameter sigmoidal curve to the data using Prism (GraphPad software).

PERK kinase = PERK kinase (Homo sapiens (Human), UniProt Q9NZJ5); assay: Biochemical assay for PERK (coupled pyruvate kinase/lactate dehydrogenase assay); details: 1 mM ATP, rate from 2-3 h time frame
Sequence of PERK kinase (Q9NZJ5 other isoform, or with tags, fused parts or gaps): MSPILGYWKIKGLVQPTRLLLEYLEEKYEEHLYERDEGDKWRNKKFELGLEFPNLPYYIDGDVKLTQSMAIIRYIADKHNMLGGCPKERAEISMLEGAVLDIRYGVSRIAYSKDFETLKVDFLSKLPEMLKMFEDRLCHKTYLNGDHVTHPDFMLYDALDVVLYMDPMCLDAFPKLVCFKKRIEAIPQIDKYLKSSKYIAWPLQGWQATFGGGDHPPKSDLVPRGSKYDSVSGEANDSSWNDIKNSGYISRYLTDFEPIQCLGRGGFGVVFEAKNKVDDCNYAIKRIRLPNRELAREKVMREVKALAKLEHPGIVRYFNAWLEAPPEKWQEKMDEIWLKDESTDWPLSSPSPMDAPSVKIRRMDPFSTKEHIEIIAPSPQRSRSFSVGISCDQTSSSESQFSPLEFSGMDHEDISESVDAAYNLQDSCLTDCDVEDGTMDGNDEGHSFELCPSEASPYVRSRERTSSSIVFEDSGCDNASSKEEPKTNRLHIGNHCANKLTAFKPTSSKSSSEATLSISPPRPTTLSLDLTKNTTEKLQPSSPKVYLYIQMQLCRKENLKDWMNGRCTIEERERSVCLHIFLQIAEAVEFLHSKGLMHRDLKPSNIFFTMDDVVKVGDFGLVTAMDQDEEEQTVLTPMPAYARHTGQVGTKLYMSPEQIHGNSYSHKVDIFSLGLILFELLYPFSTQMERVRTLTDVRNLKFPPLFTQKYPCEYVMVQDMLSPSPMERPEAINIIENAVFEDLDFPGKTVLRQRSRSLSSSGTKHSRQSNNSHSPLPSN
Method: Activity of PERK kinase was determined spectroscopically using a coupled pyruvate kinase/lactate dehydrogenase assay that continuously monitors the ATP hydrolysis-dependent oxidation of NADH (e.g., Schindler et al. Science (2000) 289: 1938-1942). Assays were conducted in 384-well plates (100 μL final volume) using 10 nM PERK (from Beryllium), 0.25 mg/mL Myelin Basic Protein substrate, 1.5 units pyruvate kinase, 2.1 units lactate dehydrogenase, 1 mM phosphoenol pyruvate, 0.28 mM NADH and 1 mM ATP in assay buffer (100 mM Tris, pH 7.5, 15 mM MgCl2, 0.5 mM DTT, 0.004% (w/v) BSA, and 0.004% Triton X-100). Inhibition of PERK was measured by adding serial diluted test compound (final assay concentration of 1% DMSO). A decrease in absorption at 340 nm was monitored continuously for 6 hours at 30° C. on a multi-mode microplate reader (BioTek). The reaction rate was calculated using the 2-3 h time frame. The reaction rate at each concentration of compound was converted to percent inhibition using controls (i.e. reaction with no test compound and reaction with a known inhibitor) and IC50 values were calculated using software routines in Prism (GraphPad software).

[1] = tested on: phospho-GCN2 (Thr899) in HCT116 colorectal cancer cells; assay: HCT116 amino acid starved (-AA) phospho-GCN2 assay (Western blot); assay type: cell-based; details: Homo sapiens, HCT-116, 4 h, read-out: HCT116-AA pGCN2 Western Blot
Method: (§1) HCT116 colorectal cancer cells (catalog #CCL-247) were obtained from the American Type Culture Collect (ATTC, Manassas, VA). Briefly, cells were grown in RPMI 1640 supplemented with 10% heat inactivated fetal bovine serum (Invitrogen, Carlsbad, CA) and 1% Penicillin/Streptomycin/L-Glutamine at 37° C., 5% CO2, and 95% humidity. Cells were expanded until reaching 70-95% confluency at which point they were subcultured or harvested for assay use. Cells were seeded in 12-well culture plate at five hundred thousand cells per well in 1 mL complete growth medium and incubated overnight at 37° C., 5% CO2, and 95% humidity. The next day each well was replaced with 1 mL Earle's Balanced Salt Solution (EBSS, Invitrogen, Carlsbad, CA) supplemented with 10% Dialyzed Fetal Bovine Serum, 5.5 mM Glucose, 1% Penicillin/Streptomycin and 1% Vitamin solution (thermo #11120052). A serial dilution of test compound was dispensed into well. Plates were incubated for 4 h at 37° C., 5% CO2, and 95% humidity. At the end of the incubation, cells were washed with PBS supplemented with 1× Halt protease inhibitor, 1× Halt phosphatase inhibitor, 1× Sigma phosphatase inhibitor cocktail 2 and 1×EDTA and then lysed with M-PER Mammalian Protein Extraction Reagent supplemented with 3× of the inhibitor mix as described above. Cell lysates were sonicated with water bath sonicator (Qsonica, Newtown, CT) and supernatants were boiled with SDS buffer and reducing agent. Western blot was performed on each lysate to quantify phospho-GCN2 (Thr899), total GCN2, ATF4 and beta-Actin. Membranes were imaged with LI-COR Odyssey CLx Imaging System (LI-COR, Lincoln, NE). Data were analyzed using GraphPad Prism software (GraphPad, San Diego, CA) to calculate IC50 values.

CCRF-CEM leukemia cells = assay: CCRF-CEM ASNase cell proliferation assay, phenotypic assay for cellular inhibition of GCN2; assay type: cell-based; details: Homo sapiens; ASNase treated CCRF-CEM cells, 1 mU/mL ASNase, 72 h
Method: CCRF-CEM leukemia cells (catalog #CCL-116) were obtained from the American Type Culture Collect (ATTC, Manassas, VA). Cells were grown in RPMI-1640 medium supplemented with 10% heat-inactivated fetal bovine serum (Invitrogen, Carlsbad, CA) and 1% Penicillin/Streptomycin/L-Glutamine at 37° C., 5% CO2, and 95% humidity. Cells were expanded until reaching one million cells per mL at which time they are subcultured or harvested for assay use. Ten thousand cells per well in 200 μL RPMI-1640 supplemented with 10% heat-inactivated fetal bovine serum and 1% Penicillin/Streptomycin were dispensed into a 96-well black clear bottom plate. A serial dilution of test compound and 1 mU/mL ASNase was added in triplicate and plates were incubated for 72 h at 37° C., 5% CO2, and 95% humidity. At the end of the incubation, 40 μL of a […] solution of resazurin (Sigma, St. Louis, MO) in PBS was added to each well of the plate and plates were incubated for an additional 6 h at 37° C., 5% CO2, and 95% humidity. Plates were read on a Synergy2 or equivalent reader (Biotek, Winooski VT) using an excitation of 540 nm and an emission of 600 nm. Data was analyzed using GraphPad Prism software (GraphPad, San Diego, CA) to calculate IC50 values.

[2] = tested on: ATF4 in CCRF-CEM leukemia cells (PERK); assay: CCRF-CEM TG ATF4 ELISA, phenotypic assay for cellular inhibition of PERK preactivated by thapsigargin; assay type: cell-based; details: Homo sapiens; Thapsigargin (1 μM) stimulated CCRF-CEM cells
Method: CCRF-CEM leukemia cells (catalog #CCL-116) were obtained from the American Type Culture Collection (ATTC, Manassas, VA). Briefly, cells were grown in RPMI-1640 medium supplemented with 10% heat-inactivated fetal bovine serum (Invitrogen, Carlsbad, CA) and 1% Penicillin/Streptomycin/L-Glutamine at 37° C., 5% CO2, and 95% humidity. Cells were expanded until reaching one million cells per mL at which time they were subcultured or harvested for assay use. One million five hundred thousand cells per well in 1 mL complete growth medium were dispensed into 12-well plates and incubated overnight. A serial dilution of test compound was added and cells were incubated at 37° C., 5% CO2, and 95% for three hours, then 1 μM thapsigargin was added and cells were incubated for an additional hour at 37° C., 5% CO2, and 95%. Cells were lysed then ATF4 levels were measured using an ELISA assay (Proteintech, Rosemont, IL). Absorbance was measured at 450 nm and 544 nM using a Synergy2 or equivalent reader (Biotek, Winooski VT). Data was analyzed using PRISM software (Graphpad, San Diego, CA) to calculate IC50 values.

[3] = tested on: ATF4 in HCT116 colorectal cancer cells; assay: HCT116 amino acid starved (-AA) ATF4 assay (Western blot); assay type: cell-based; details: Homo sapiens, HCT-116, 4 h
Method: as §1

Sequence of GCN2 kinase (Q9P2K8 whole entry): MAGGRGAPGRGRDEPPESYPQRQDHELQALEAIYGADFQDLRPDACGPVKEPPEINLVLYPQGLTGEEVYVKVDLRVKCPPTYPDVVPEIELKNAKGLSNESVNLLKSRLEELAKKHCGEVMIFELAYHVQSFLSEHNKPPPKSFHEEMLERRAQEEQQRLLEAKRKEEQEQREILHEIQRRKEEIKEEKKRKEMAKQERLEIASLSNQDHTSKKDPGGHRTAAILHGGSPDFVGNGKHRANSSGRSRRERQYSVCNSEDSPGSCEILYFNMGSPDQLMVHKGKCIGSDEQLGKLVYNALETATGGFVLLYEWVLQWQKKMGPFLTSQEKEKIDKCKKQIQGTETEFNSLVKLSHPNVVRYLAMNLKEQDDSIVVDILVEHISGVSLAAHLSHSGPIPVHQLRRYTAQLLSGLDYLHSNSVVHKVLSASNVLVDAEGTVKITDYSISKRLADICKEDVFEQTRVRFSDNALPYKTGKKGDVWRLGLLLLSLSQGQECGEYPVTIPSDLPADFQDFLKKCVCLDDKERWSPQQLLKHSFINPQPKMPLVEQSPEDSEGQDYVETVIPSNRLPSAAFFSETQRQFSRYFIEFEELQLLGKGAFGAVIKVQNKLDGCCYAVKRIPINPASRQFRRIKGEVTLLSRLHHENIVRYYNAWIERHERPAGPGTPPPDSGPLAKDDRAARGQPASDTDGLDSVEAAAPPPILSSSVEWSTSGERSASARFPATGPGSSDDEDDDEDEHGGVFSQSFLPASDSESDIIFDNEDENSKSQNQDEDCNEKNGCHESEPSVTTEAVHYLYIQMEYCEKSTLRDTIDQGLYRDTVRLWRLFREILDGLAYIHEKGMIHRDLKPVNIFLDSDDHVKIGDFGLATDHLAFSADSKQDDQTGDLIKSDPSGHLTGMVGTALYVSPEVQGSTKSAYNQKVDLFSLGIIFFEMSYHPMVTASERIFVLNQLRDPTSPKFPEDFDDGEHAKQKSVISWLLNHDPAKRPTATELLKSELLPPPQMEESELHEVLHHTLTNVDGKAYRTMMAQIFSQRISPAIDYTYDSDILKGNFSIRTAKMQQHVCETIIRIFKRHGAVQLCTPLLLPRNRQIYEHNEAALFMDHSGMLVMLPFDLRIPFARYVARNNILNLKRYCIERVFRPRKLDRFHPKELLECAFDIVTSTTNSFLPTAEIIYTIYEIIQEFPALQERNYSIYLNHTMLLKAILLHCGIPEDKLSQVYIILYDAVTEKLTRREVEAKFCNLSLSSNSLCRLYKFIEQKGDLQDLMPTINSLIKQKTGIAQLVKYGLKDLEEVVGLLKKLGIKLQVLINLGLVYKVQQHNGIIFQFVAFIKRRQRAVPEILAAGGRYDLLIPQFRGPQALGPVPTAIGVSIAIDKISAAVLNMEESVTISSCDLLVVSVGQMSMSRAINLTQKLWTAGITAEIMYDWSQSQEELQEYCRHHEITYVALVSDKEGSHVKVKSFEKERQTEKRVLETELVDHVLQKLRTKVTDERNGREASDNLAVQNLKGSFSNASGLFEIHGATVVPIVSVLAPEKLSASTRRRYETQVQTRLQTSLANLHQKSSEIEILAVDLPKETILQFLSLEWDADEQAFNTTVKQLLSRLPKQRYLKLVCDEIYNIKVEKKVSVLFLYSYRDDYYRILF

SMILES | IC50 (GCN2 kinase) [nM] | IC50 (PERK kinase) [nM] | IC50 [1] [nM] | IC50 (CCRF-CEM leukemia cells) [nM] | IC50 [2] [nM] | IC50 [3] [nM]
CNc1ncc2cc(-c3cc(F)cc(NS(=O)(=O)c4cc(Cl)cnc4OC)c3)c(NC)nc2n1 [Example 11] | ≤ 100 | 100 to 500 | ≤ 100 | 100 to 500 | 1000 to 10000 | ≤ 100
CNc1cc2ncc(-c3cccc(NS(=O)(=O)c4cc(Cl)cc(CO)c4Cl)c3F)cc2cn1 [Example 4, 2,5-dichloro-N-(2-fluoro-3-(7-(methylamino)-1,6-naphthyridin-3-yl)phenyl)-3-(hydroxymethyl)benzenesulfonamide] | ≤ 100 | ≤ 100 | – | 1000 to 10000 | ≤ 100 | –
CNc1ncc2cc(-c3cc(NS(=O)(=O)c4cc(Cl)cnc4OC)cc(F)c3C)c(C)nc2n1 [Example 26] | ≤ 100 | ≤ 100 | ≤ 100 | ≤ 100 | 1000 to 10000 | ≤ 100
CNc1ncc2cc(-c3cccc(NS(=O)(=O)c4cc(Cl)cnc4OC)c3F)c(OC)nc2n1 [Example 66] | ≤ 100 | ≤ 100 | ≤ 100 | ≤ 100 | 1000 to 10000 | ≤ 100
COc1ncc(Cl)cc1S(=O)(=O)Nc1cc(F)cc(-c2cc3cnc(Nc4cnn(C)c4)nc3nc2C)c1 [Example 87] | ≤ 100 | ≤ 100 | ≤ 100 | ≤ 100 | 1000 to 10000 | ≤ 100
CNc1ncc2cc(-c3cccc(NS(=O)(=O)c4cc(Cl)c(OC)cc4Cl)c3F)c(NC)nc2n1 [Example 132] | ≤ 100 | ≤ 100 | ≤ 100 | ≤ 100 | 500 to 1000 | ≤ 100
CNc1ncc2cc(-c3cccc(NS(=O)(=O)c4cc(Cl)cc(C(C)(C)O)c4Cl)c3F)c(NC)nc2n1 [Example 74] | 100 to 500 | 100 to 500 | ≤ 100 | ≤ 100 | 1000 to 10000 | ≤ 100
CNc1cc2nc(NC)c(-c3cccc(NS(=O)(=O)c4cc(Cl)cnc4OC)c3Cl)cc2cn1 [Example 113] | 100 to 500 | 100 to 500 | ≤ 100 | ≤ 100 | 500 to 1000 | 100 to 500
CCNc1ncc2cc(-c3cccc(NS(=O)(=O)c4cc(Cl)cnc4OC)c3F)c(NC)nc2n1 [Example 115] | ≤ 100 | ≤ 100 | ≤ 100 | ≤ 100 | 1000 to 10000 | ≤ 100
CNc1ncc2cc(-c3cccc(NS(=O)(=O)c4cc(Cl)cnc4NC4CC4)c3F)c(NC)nc2n1 [Example 137] | ≤ 100 | 100 to 500 | ≤ 100 | ≤ 100 | 1000 to 10000 | ≤ 100
CNc1ncc2cc(-c3cccc(NS(=O)(=O)c4cc(Cl)cnc4OC)c3F)c(C)nc2n1 [Example 3, 5-chloro-N-(2-fluoro-3-(7-methyl-2-(methylamino)pyrido[2,3-d]pyrimidin-6-yl)phenyl)-2-methoxypyridine-3-sulfonamide] | ≤ 100 | ≤ 100 | ≤ 100 | ≤ 100 | – | ≤ 100
COc1nc2nc(N)ncc2cc1-c1cc(F)cc(NS(=O)(=O)c2cc(Cl)cnc2OC)c1 [Example 93] | ≤ 100 | 100 to 500 | ≤ 100 | 100 to 500 | 1000 to 10000 | 100 to 500
CNc1ncc2cc(-c3c(F)ccc(NS(=O)(=O)c4cc(Cl)cnc4OC)c3F)c(C)nc2n1 [Example 27] | ≤ 100 | ≤ 100 | ≤ 100 | ≤ 100 | 1000 to 10000 | ≤ 100
CNc1ncc2cc(-c3cccc(NS(=O)(=O)c4cc(Cl)cc(CO)c4F)c3F)c(NC)nc2n1 [Example 176] | ≤ 100 | ≤ 100 | – | ≤ 100 | 1000 to 10000 | –
COc1cc2nc(N)ncc2cc1-c1cccc(NS(=O)(=O)c2cc(Cl)cc(CO)c2Cl)c1F [Example 167] | ≤ 100 | ≤ 100 | – | ≤ 100 | ≤ 100 | –
CNc1ncc2cc(-c3cccc(NS(=O)(=O)c4cc(OC)ccc4Cl)c3F)c(NC)nc2n1 [Example 168] | ≤ 100 | ≤ 100 | – | 100 to 500 | 1000 to 10000 | –
CNc1ncc2cc(-c3cccc(NS(=O)(=O)c4cc(Cl)cnc4OC)c3)c(NC)nc2n1 [Example 15] | ≤ 100 | 100 to 500 | ≤ 100 | 100 to 500 | – | 100 to 500
CNc1ncc2cc(-c3cccc(NS(=O)(=O)c4cc(F)cc(CO)c4F)c3F)c(NC)nc2n1 [Example 178] | ≤ 100 | 100 to 500 | – | ≤ 100 | 1000 to 10000 | –
CNc1ncc2cc(-c3cc(F)cc(NS(=O)(=O)c4cc(Cl)cnc4OC)c3)c(C)nc2n1 [Example 65] | – | 100 to 500 | ≤ 100 | 100 to 500 | 1000 to 10000 | 100 to 500
CNc1ncc2cc(-c3cccc(NS(=O)(=O)c4cc(F)cc(CO)c4Cl)c3F)c(NC)nc2n1 [Example 177] | ≤ 100 | 100 to 500 | – | ≤ 100 | 100 to 500 | –
